From ChEMBL document CHEMBL6182930, “Discovery of TBK1Molecular Glue Degraders as a Potential Strategy for the Treatment of Autosomal Dominant Polycystic Kidney Disease (ADPKD)” (J Med Chem, 2025)
Activity calls are given as the source filed them. The calls are words filed in the database; no cut-off is given here.

Columns and labels:
[1] = molecular target: T1, E3 ubiquitin-protein ligase RNF126/Serine/threonine-protein kinase TBK1 (Homo sapiens, UniProt Q9UHD2+Q9BV68); test: Molecular glue activity at RNF126/TBK1 in HEK293T cells assessed as induction of TBK1 degradation at 1 uM incubated for 16 hrs by Western blot analysis; format: cell-based
Target sequence in this assay (Q9BV68 2-311 partner limits assumed): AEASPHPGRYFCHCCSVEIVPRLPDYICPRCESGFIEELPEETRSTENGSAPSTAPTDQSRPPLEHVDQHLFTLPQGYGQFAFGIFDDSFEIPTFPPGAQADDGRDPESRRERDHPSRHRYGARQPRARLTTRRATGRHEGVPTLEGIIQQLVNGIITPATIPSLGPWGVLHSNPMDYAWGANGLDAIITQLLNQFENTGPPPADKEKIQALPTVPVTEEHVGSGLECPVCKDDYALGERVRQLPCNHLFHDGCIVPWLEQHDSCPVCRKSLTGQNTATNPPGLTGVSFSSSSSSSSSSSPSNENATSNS
Target sequence in this assay (Q9UHD2 whole entry): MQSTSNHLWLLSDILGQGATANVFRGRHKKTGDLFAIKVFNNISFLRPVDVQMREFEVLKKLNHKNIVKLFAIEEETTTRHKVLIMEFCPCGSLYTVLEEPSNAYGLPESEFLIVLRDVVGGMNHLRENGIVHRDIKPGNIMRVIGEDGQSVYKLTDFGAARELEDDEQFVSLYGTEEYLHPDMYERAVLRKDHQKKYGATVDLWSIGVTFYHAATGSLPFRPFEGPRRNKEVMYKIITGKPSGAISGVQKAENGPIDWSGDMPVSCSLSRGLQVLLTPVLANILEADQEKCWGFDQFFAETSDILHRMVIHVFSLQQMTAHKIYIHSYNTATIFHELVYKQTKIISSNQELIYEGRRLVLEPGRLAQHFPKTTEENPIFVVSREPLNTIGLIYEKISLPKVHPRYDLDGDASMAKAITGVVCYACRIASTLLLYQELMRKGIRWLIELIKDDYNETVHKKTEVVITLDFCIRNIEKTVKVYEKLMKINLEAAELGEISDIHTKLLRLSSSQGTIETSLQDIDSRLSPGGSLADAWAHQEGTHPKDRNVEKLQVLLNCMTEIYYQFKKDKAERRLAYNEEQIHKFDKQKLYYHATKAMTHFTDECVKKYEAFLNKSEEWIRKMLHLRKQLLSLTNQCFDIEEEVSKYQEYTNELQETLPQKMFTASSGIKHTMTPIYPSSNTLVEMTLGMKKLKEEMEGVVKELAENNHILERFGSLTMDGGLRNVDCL

[2] = Half-life in rat at 2 mg/kg, iv measured after 24 hrs by LC-MS/MS analysis; format: ADME, organism-based; conditions: in vivo
[3] = system: Mus musculus; test: In vivo inhibition of TBK1-mediated activation of inflammatory pathway in PKD1 knockout ADPKD (Pkd1 flox/flox; Ksp-Cre) C57BL/6 mouse model assessed as decrease in phosphorylated IRF3 level in kidney at 5 mg/kg, SC administered from postnatal day 6 and measured on postnatal day 12 by Western blot analysis; format: functional, organism-based; conditions: time 7.0 day
[4] = molecular target: T1, E3 ubiquitin-protein ligase RNF126/Serine/threonine-protein kinase TBK1; test: Molecular glue activity at RNF126/TBK1 in HEK293T cells assessed as induction of TBK1 degradation incubated for 16 hrs by Western blot analysis; format: cell-based
[5] = molecular target: T1, E3 ubiquitin-protein ligase RNF126/Serine/threonine-protein kinase TBK1; test: Molecular glue activity at RNF126/TBK1 in human A549 cells assessed as induction of TBK1 degradation by measuring maximal efficacy at 10 to 1000 nM incubated for 16 hrs by Western blot analysis relative to control; format: cell-based; conditions: dose 10-1000 nM
Target sequence in this assay (Q9BV68 2-311 partner limits assumed): as the sequence (Q9BV68 2-311 partner limits assumed) above
Target sequence in this assay (Q9UHD2 whole entry): as the sequence (Q9UHD2 whole entry) above

[6] = molecular target: T1, E3 ubiquitin-protein ligase RNF126/Serine/threonine-protein kinase TBK1; test: Molecular glue activity at RNF126/TBK1 in human A549 cells assessed as induction of TBK1 degradation at 1 uM pretreated with MLN4924 for 2 hrs followed by compound addition and measured after 16 hrs by Western blot analysis; format: cell-based
Target sequence in this assay (Q9BV68 2-311 partner limits assumed): as the sequence (Q9BV68 2-311 partner limits assumed) above
Target sequence in this assay (Q9UHD2 whole entry): as the sequence (Q9UHD2 whole entry) above

[7] = Tmax in rat at 2 mg/kg, iv measured after 24 hrs by LC-MS/MS analysis; format: ADME, organism-based; conditions: in vivo
[8] = system: Mus musculus; test: In vivo molecular glue activity at RNF126/TBK1 in PKD1 knockout ADPKD (Pkd1 flox/flox; Ksp-Cre) C57BL/6 mouse model assessed as decrease in TBK1 level in kidney at 5 mg/kg, SC administered from postnatal day 6 and measured on postnatal day 12 by Western blot analysis; format: functional, organism-based; conditions: time 7.0 day
[9] = molecular target: T1, E3 ubiquitin-protein ligase RNF126/Serine/threonine-protein kinase TBK1; test: Molecular glue activity at RNF126/TBK1 in human A549 cells assessed as induction of TBK1 degradation at 1 uM measured after 24 hrs by Western blot analysis; format: cell-based
Target sequence in this assay (Q9BV68 2-311 partner limits assumed): as the sequence (Q9BV68 2-311 partner limits assumed) above
Target sequence in this assay (Q9UHD2 whole entry): as the sequence (Q9UHD2 whole entry) above

[10] = molecular target: T1, E3 ubiquitin-protein ligase RNF126/Serine/threonine-protein kinase TBK1; test: Molecular glue activity at RNF126/TBK1 in HEK293T cells assessed as induction of TBK1 degradation at 1 uM pretreated with MG132 for 2 hrs followed by compound addition and measured after 16 hrs by Western blot analysis; format: cell-based
Target sequence in this assay (Q9BV68 2-311 partner limits assumed): as the sequence (Q9BV68 2-311 partner limits assumed) above
Target sequence in this assay (Q9UHD2 whole entry): as the sequence (Q9UHD2 whole entry) above

[11] = system: Mus musculus; test: Inhibition of renal cystogenesis in PKD1 knockout ADPKD (Pkd1 flox/flox; Ksp-Cre) C57BL/6 mouse model assessed as reduction in relative kidney size at 5 mg/kg, SC administered from postnatal day 6 and measured on postnatal day 12; format: functional, organism-based; conditions: time 7.0 day
[12] = molecular target: T1, E3 ubiquitin-protein ligase RNF126/Serine/threonine-protein kinase TBK1; test: Molecular glue activity at RNF126/TBK1 in human A549 cells assessed as induction of TBK1 degradation at 1 uM by Western blot analysis; format: cell-based; conditions: time 2-24 hrs
Target sequence in this assay (Q9BV68 2-311 partner limits assumed): as the sequence (Q9BV68 2-311 partner limits assumed) above
Target sequence in this assay (Q9UHD2 whole entry): as the sequence (Q9UHD2 whole entry) above

[13] = Cmax in rat at 10 mg/kg, po measured after 24 hrs by LC-MS/MS analysis; format: ADME, organism-based; conditions: in vivo
[14] = system: Mus musculus; test: Anti-inflammatory activity in PKD1 knockout ADPKD (Pkd1 flox/flox; Ksp-Cre) C57BL/6 mouse model assessed as decrease in IL-6 level in kidney at 5 mg/kg, SC administered from postnatal day 6 and measured on postnatal day 12 by RT-qPCR analysis; format: functional, organism-based; conditions: time 7.0 day

Structure (SMILES): COc1ccc(C(=O)/C=C/C(=O)N2CCN(CC3CCN(Cc4cccc(Nc5ncc6ccn(CCCNC(=O)C7CCC7)c6n5)c4)CC3)CC2)cc1
- Activity [1]: Active
- half-life [2]: 4.47 h
- inhibition [3]: Active
- Activity [4]: Dose-dependent-effect
- DC50 [4]: 351 nM
- Emax [5]: 71.9%
- Activity [6]: Active; Degradation In Independent Of Crl-Related Pathway
- Tmax [7]: 4.8 min
- Activity [8]: Active
- Activity [9]: Active; Maximal Tbk1 Degradation Observed
- Activity [10]: inactive
- inhibition [11]: Active
- Activity [12]: Time-dependent-effect
- Cmax [13]: 70 nM
- Activity [14]: Active
